# Reference: patent US20140155445A1, “Compounds and Methods for Treating Cancer and Diseases of the Central Nervous System” (Osta Biotechnologies Inc., priority 2007, published 2014)
# Counter-ions that a name gives are not always drawn. Like-named read-outs stand apart in the source and are kept apart here.
# What was measured:
# HO-1 (rat spleen) = biological target: T1, HO-1 (rat spleen) (Rattus norvegicus, UniProt P06762); test: HO enzymatic activity in rat spleen microsomal fraction (CO formed from methemalbumin, gas chromatography); assay type: biochemical
# T1 construct: Spleen microsomes were used as a source of HO-1; from tissue; host or cells: spleen microsomal fraction of adult male Sprague-Dawley rats
# T1 sequence (P06762 1-289): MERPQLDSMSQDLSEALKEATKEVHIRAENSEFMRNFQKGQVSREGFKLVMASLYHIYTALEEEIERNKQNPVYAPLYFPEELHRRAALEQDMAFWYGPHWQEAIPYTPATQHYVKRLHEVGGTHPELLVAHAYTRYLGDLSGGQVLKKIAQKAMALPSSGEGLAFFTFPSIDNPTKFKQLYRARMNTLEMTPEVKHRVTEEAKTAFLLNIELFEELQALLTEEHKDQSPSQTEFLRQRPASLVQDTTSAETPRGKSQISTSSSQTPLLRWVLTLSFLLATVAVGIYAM
# Method: (§1) Incubations for HO activity analysis were done under conditions for which the rate of CO formation (pmol CO×min^−1×mg protein^−1) was linear with respect to time and microsomal protein concentration. Briefly, reaction mixtures (150 μL) consisting of 100 mM phosphate buffer (pH 7.4), 50 μM methemalbumin, and 1 mg/mL protein were pre-incubated with the inhibitors at final concentrations ranging from 0.1-100 μM for 10 minutes at 37° C. Reactions were initiated by adding NADPH at a final concentration of 1 mM and incubations were performed for an additional 15 minutes at 37° C.
# (§2) Incubations for HO activity analysis were done under conditions for which the rate of CO formation (pmol CO/mg protein/minute) was linear with respect to time and microsomal protein concentration. Briefly, reaction mixtures (150 μL) consisting of 100 mM phosphate buffer (pH 7.4), 50 μM methemalbumin and 1 mg/mL protein were pre-incubated with the vehicle (ethanol or water in which the inhibitors were dissolved), or inhibitors at final concentrations ranging from 0.1-1000 μM for 10 minutes at 37° C. Reactions were initiated by adding β-NADPH at a final concentration of 1 mM and incubations were carried out for an additional 15 minutes at 37° C. Reactions were stopped by instantly freezing the reaction mixture on pulverized dry ice and CO formation was measured by gas chromatography using a TA 3000R Process Gas Analyzer (Trace Analytical/Ametek, Newark, Del., USA).
# (§3) The values on the abscissa represent the decimal logarithm of the inhibitor's concentration (in μM), whereas the values of the activity on the ordinate are expressed as a percentage of the control experiments without inhibitor.
# (§4) The IC50 values for the replicate experiments were employed to generate the reported standard deviation value.
# HO-2 (rat brain) = biological target: T2, HO-2 (rat brain) (Rattus norvegicus, UniProt P23711); test: HO enzymatic activity in rat brain microsomal fraction (CO formed from methemalbumin, gas chromatography); assay type: biochemical
# T2 construct: brain microsomes were used as a source of HO-2; from tissue; host or cells: brain microsomal fraction of adult male Sprague-Dawley rats
# T2 sequence (P23711 1-315): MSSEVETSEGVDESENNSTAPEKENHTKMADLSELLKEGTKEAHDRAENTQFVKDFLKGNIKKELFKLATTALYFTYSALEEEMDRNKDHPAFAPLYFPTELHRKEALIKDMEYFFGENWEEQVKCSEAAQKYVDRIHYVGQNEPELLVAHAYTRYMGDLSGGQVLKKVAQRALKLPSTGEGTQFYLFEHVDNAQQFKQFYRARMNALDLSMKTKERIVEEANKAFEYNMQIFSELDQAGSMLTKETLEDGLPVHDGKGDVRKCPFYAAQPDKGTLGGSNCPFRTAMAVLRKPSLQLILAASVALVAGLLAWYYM
# Method: as §1, §2, §3, §4
# [1] = rat spleen microsomes, average ± standard deviation of replicate experiments, read-out: IC50 HO-1 (rat spleen)/μM
# [2] = rat brain microsomes, average ± standard deviation of replicate experiments, read-out: IC50 HO-2 (rat brain)/μM
# [3] = rat brain microsomes, average ± standard deviation of replicate experiments
smiles,measurement,setting,value
OC(Cn1ccnc1)c1ccc(Cl)cc1 (racemic) [(±)-1-(4-chloro-phenyl)-2-imidazol-1-yl-ethanol hydrochloride],IC50,HO-1 (rat spleen); [1],1.19 ± 0.03 µM
same,IC50,HO-2 (rat brain); [2],16 ± 8 µM
Fc1ccc(COC(Cn2ccnc2)c2ccc(CCc3ccccc3)cc2)cc1 (racemic) [(±)-1-[2-(4-fluoro-benzyloxy)-2-(4-phenethyl-phenyl)-ethyl]-1H-imidazole],IC50,HO-1 (rat spleen); [1],~7 µM
same,IC50,HO-2 (rat brain); [2],> 100 µM
Fc1ccc(COC(Cn2ccnc2)c2ccc(-c3ccc(Br)cc3)cc2)cc1 (racemic) [(±)-1-[2-(4′-bromo-biphenyl-4-yl)-2-(4-fluoro-benzyloxy)-ethyl]-1H-imidazole],IC50,HO-1 (rat spleen); [1],5 ± 2 µM
same,IC50,HO-2 (rat brain); [2],> 100 µM
OC(CCn1ccnc1)C12CC3CC(CC(C3)C1)C2 (racemic) [(±)-1-adamantan-1-yl-3-imidazol-1-yl-propan-1-ol hydrochloride],IC50,HO-1 (rat spleen); [1],2 ± 0.6 µM
same,IC50,HO-2 (rat brain); [2],6.5 ± 0.1 µM
"O=C(c1ccccc1)C(c1ccccc1)n1ccnc1 (racemic) [(±)-2-imidazol-1-yl-1,2-diphenyl-ethanone hydrochloride]",IC50,HO-1 (rat spleen); [1],24 ± 6 µM
same,IC50,HO-2 (rat brain); [2],> 100 µM
OC(Cn1ccnc1)c1ccc(CCc2ccccc2)cc1 (racemic) [(±)-2-imidazol-1-yl-1-(4-phenethyl-phenyl)-ethanol],IC50,HO-1 (rat spleen); [1],0.225 ± 0.004 µM
same,IC50,HO-2 (rat brain); [2],1 ± 1 µM
CC(C(=O)c1ccccc1)n1ccnc1 (racemic) [(±)-2-imidazol-1-yl-1-phenyl-propan-1-one hydrochloride],IC50,HO-1 (rat spleen),49 ± 2 µM
same,IC50,HO-2 (rat brain),> 100 µM
O=C1c2ccccc2CC1n1ccnc1 (racemic) [(±)-2-imidazol-1-yl-indan-1-one hydrochloride],IC50,HO-1 (rat spleen); [1],> 100 µM
same,IC50,HO-2 (rat brain); [2],> 100 µM
"O=C(Cc1ccccc1)C(Cn1ccnc1)c1ccccc1 (racemic) [(±)-4-(1H-imidazol-1-yl)-1,3-diphenyl-butan-2-one hydrochloride]",IC50,HO-1 (rat spleen); [1],3.85 ± 0.07 µM
same,IC50,HO-2 (rat brain); [2],> 100 µM
CC(O)C(Cc1ccc(Cl)cc1)n1ccnc1 (racemic) [(±)-4-(4-chlorophenyl)-3-imidazol-1-yl-butan-2-ol hydrochloride],IC50,HO-1 (rat spleen),40 ± 2 µM
same,IC50,HO-2 (rat brain),> 100 µM
CC(=O)C(Cc1ccc(Cl)cc1)n1ccnc1 (racemic) [(±)-4-(4-chlorophenyl)-3-imidazol-1-yl-butan-2-one hydrochloride],IC50,HO-1 (rat spleen),> 100 µM
same,IC50,HO-2 (rat brain),> 100 µM
OC(CCc1ccccc1)Cn1cnc(-c2ccccc2)c1 (racemic) [(±)-4-phenyl-1-(4-phenyl-imidazol-1-yl)-butan-2-ol hydrochloride],IC50,HO-1 (rat spleen); [1],15 ± 1 µM
same,IC50,HO-2 (rat brain); [2],> 100 µM
"OC(CCc1ccccc1)Cn1ccnn1 (racemic) [(±)-4-phenyl-1-[1,2,3]triazol-1-yl-butan-2-ol hydrochloride]",IC50,HO-1 (rat spleen); [1],44 ± 1 µM
same,IC50,HO-2 (rat brain); [2],> 100 µM
"OC(CCc1ccccc1)Cn1cncn1 (racemic) [(±)-4-phenyl-1-[1,2,4]triazol-1-yl-butan-2-ol hydrochloride]",IC50,HO-1 (rat spleen); [1],10.2 ± 0.2 µM
same,IC50,HO-2 (rat brain),54 ± 12 µM
OC(CCc1ccccc1)Cn1cnnn1 (racemic) [(±)-4-phenyl-1-tetrazol-1-yl-butan-2-ol hydrochloride],IC50,HO-1 (rat spleen); [1],56 ± 6 µM
same,IC50,HO-2 (rat brain); [2],> 100 µM
OC(CCc1ccccc1)Cn1ncnn1 (racemic) [(±)-4-phenyl-1-tetrazol-2-yl-butan-2-ol hydrochloride],IC50,HO-1 (rat spleen),> 100 µM
same,IC50,HO-2 (rat brain),> 100 µM
"CC(=O)C(Cc1ccccc1)n1cncn1 (racemic) [(±)-4-phenyl-3-[1,2,4]triazol-1-yl-butan-2-one]",IC50,HO-1 (rat spleen); [1],> 100 µM
same,IC50 HO-2 (rat brain)/μM,HO-2 (rat brain); [3],INACTIVE
Clc1ccc(C(Cn2ccnc2)NCc2ccccc2)cc1 (racemic) [(±)-benzyl-[1-(4-chloro-phenyl)-2-imidazol-1-yl-ethyl]amine dihydrochloride],IC50,HO-1 (rat spleen); [1],3.39 ± 0.08 µM
same,IC50,HO-2 (rat brain); [2],22 ± 4 µM
"OC(Cn1ccnc1)c1ccc(-c2ccc(Br)cc2)cc1 (racemic) [drawing 342, (±)-1-(4′-bromo-biphenyl-4-yl)-2-imidazol-1-yl-ethanol]",IC50,HO-1 (rat spleen); [1],0.06 ± 0.03 µM
same,IC50,HO-2 (rat brain); [2],> 100 µM
"Clc1ccc(CC[C@@]2(Cn3ccnc3)OCC(COc3ccc(I)cc3)O2)cc1 (stereo in doubt) [(2R,4S)-1-[2-[2-(4-chloro-phenyl)-ethyl]-4-(4-iodo-phenoxymethyl)-[1,3]dioxolan-2-ylmethyl]-1H-imidazole hydrochloride]",IC50,HO-1 (rat spleen); [1],9 ± 3 µM
same,IC50,HO-2 (rat brain); [2],15 ± 4 µM
"COc1ccc(OCC2CO[C@@](CCc3ccc(Cl)cc3)(Cn3ccnc3)O2)cc1 (stereo in doubt) [(2R,4S)-1-[2-[2-(4-chloro-phenyl)-ethyl]-4-(4-methoxy-phenoxymethyl)-[1,3]dioxolan-2-ylmethyl]-1H-imidazole hydrochloride]",IC50,HO-1 (rat spleen); [1],1.33 ± 0.03 µM
same,IC50,HO-2 (rat brain); [2],19 ± 7 µM
"COCC1CO[C@@](CCc2ccc(Cl)cc2)(Cn2ccnc2)O1 (stereo in doubt) [(2R,4S)-1-{2-[2-(4-chloro-phenyl)-ethyl]-4-methoxymethyl-[1,3]dioxolan-2-ylmethyl}-1H-imidazole hydrochloride]",IC50,HO-1 (rat spleen); [1],1.73 ± 0.01 µM
same,IC50,HO-2 (rat brain); [2],3.3 ± 0.9 µM
"Clc1ccc(CC[C@@]2(Cn3ccnc3)OCC(COc3ccccc3)O2)cc1 (stereo in doubt) [(2R,4S)-1-{2-[2-(4-chloro-phenyl)-ethyl]-4-phenoxymethyl-[1,3]dioxolan-2-ylmethyl}-1H-imidazole hydrochloride]",IC50,HO-1 (rat spleen); [1],0.59 ± 0.04 µM
same,IC50,HO-2 (rat brain); [2],1.6 ± 0.3 µM
"Clc1ccc(CC[C@@]2(Cn3ccnc3)OCC(COc3ccc(Br)cc3)O2)cc1 (stereo in doubt) [(2R,4S)-1-{4-(4-bromo-phenoxymethyl)-2-[2-(4-chloro-phenyl)-ethyl]-[1,3]dioxolan-2-ylmethyl}-1H-imidazole hydrochloride]",IC50,HO-1 (rat spleen); [1],3.5 ± 0.2 µM
same,IC50,HO-2 (rat brain); [2],22 ± 8 µM
"Clc1ccc(CC[C@@]2(Cn3ccnc3)OCC(COc3ccc(C45CC6CC(CC(C6)C4)C5)cc3)O2)cc1 (stereo in doubt) [(2R,4S)-2-[2-(4-chlorophenyl)ethyl]-2-[(1H-imidazol-1-yl)methyl]-4-[(4-adamantan-1-yl-phenoxy)methyl]-1,3-dioxolane hydrochloride]",IC50,HO-1 (rat spleen); [1],> 100 µM
same,IC50,HO-2 (rat brain); [2],> 100 µM
"Nc1ccc(OCC2CO[C@@](CCc3ccc(Cl)cc3)(Cn3ccnc3)O2)cc1 (stereo in doubt) [(2R,4S)-2-[2-(4-chlorophenyl)ethyl]-2-[(1H-imidazol-1-yl)methyl]-4-[(4-aminophenyloxy)meth-yl]-1,3-dioxolane dihydrochloride]",IC50,HO-1 (rat spleen); [1],1.4 ± 0.3 µM
same,IC50,HO-2 (rat brain); [2],13 ± 4 µM
"Oc1ccc(OCC2CO[C@@](CCc3ccc(Cl)cc3)(Cn3ccnc3)O2)cc1 (stereo in doubt) [(2R,4S)-2-[2-(4-chlorophenyl)ethyl]-2-[(1H-imidazol-1-yl)methyl]-4-[(4-hydroxyphenyloxy)meth-yl]-1,3-dioxolane hydrochloride]",IC50,HO-1 (rat spleen); [1],1.8 ± 0.5 µM
same,IC50,HO-2 (rat brain); [2],7.1 ± 0.7 µM
"N#Cc1ccc(OCC2CO[C@@](CCc3ccc(Cl)cc3)(Cn3ccnc3)O2)cc1 (stereo in doubt) [(2R,4S)-4-{2-[2-(4-chlorophenyl)ethyl]-2-imidazol-1-ylmethyl-[1,3]dioxolan-4-ylmethoxy}-benzonitrile hydrochloride]",IC50,HO-1 (rat spleen); [1],0.67 ± 0.02 µM
same,IC50,HO-2 (rat brain); [2],1.7 ± 0.2 µM
"COc1ccc(OCC2CO[C@](CCc3ccc(Cl)cc3)(Cn3ccnc3)O2)cc1 (stereo in doubt) [(2S,4S)-2-[2-(4-chlorophenyl)ethyl]-2-[(1H-imidazol-1-yl)methyl]-4-[(4-methoxyphenyloxy)meth-yl]-1,3-dioxolane hydrochloride]",IC50,HO-1 (rat spleen); [1],28 ± 15 µM
same,IC50,HO-2 (rat brain); [2],29 ± 6 µM
"Cl.OC(Cn1ccnc1)Cn1ccnc1 [1,3-Di-(1H-imidazol-1-yl)propan-2-ol dihydrochloride]",IC50 HO-1 (rat spleen)/μM,"HO-1 (rat spleen); rat spleen microsomes, average ± standard deviation of replicate experiments",Inactive
same,IC50 HO-2 (rat brain)/μM,HO-2 (rat brain); [3],Inactive
"c1cn(CCCCc2ccc(CCCCn3ccnc3)cc2)cn1 [1,4-bis[(4-1H-imidazol-1-yl)butyl]benzene dihydrochloride]",IC50,HO-1 (rat spleen); [1],0.4 ± 0.1 µM
same,IC50,HO-2 (rat brain); [2],8 ± 2 µM
"c1cn(CCCCCCCCn2ccnc2)cn1 [1,8-bis-(1H-imidazol-1-yl)octane dihydrochloride]",IC50,HO-1 (rat spleen); [1],> 100 µM
same,IC50,HO-2 (rat brain); [2],> 100 µM
